The values that follow come from PubChem BioAssay (NCI).

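Five concentrations, 48 hours, 96-well plates. TGI is the concentration that stops growth completely.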

One assay has as its system MDA-N. Kind of assay: NCI anticancer screen, dose series, 48 h.
Turning to `Cc1c(C)n(-c2ccccc2)c2nc(S(C)(=O)=O)nc(S(C)(=O)=O)c12`, the TGI was 3.43 µM.

`CC(=O)O[C@H]1CC[C@@]2(C)C(=CC[C@@H]3[C@@H]2CC[C@]2(C)NC(=O)/C(=C\c4ccccc4)C[C@@H]32)C1` registered a TGI of 42.6 µM.

`O=C(CCc1cc(O)ccc1O)OCCc1ccccc1`: the TGI stood at 26.9 µM.

For `O=C(N[C@@H](c1ccccc1)[C@@H](O)C(=O)OCc1ccc([N+](=O)[O-])cc1)c1ccccc1`, the TGI was over 100 µM.

Molecule `Cc1c(O)c(OC2OC(CO)C(O)C(O)C2O)cc2c1CC[C@@H]1C2(C)C(=O)C[C@]2(C)[C@@H]([C@@](C)(O)C(=O)CCC(C)(C)O)[C@H](O)C[C@@]12C` (stereo not given in full) registered a TGI of over 100 µM.

In turn, `O=c1oc2ccccc2cc1-c1cn2ccccc2n1` registered a TGI of 19.8 µM.

In the case of `Cn1c(=O)oc2cc(C(O)CN3CCN(Cc4ccccn4)CC3)c(Cl)cc21` (stereo not given), the TGI was over 100 µM.

For `O=C(NCCCl)N(O)C(=O)Nc1ccccc1`, the TGI was over 100 µM.

Take `COC(=O)[C@H](Cc1c[nH]c2ccccc12)NC(=O)c1ccc(CNC(=O)/C(C)=C/c2ccccc2)cc1`: the TGI is 40.3 µM.

`C/C(=N/NC(=S)Nc1ccc(Cl)cc1)c1cccc(/C(C)=N\NC(=S)Nc2ccc(Cl)cc2)n1` displayed a TGI of over 100 µM.

`COC(=O)C1(C(=O)OC)C/C(C)=C(/C)SCCCS1`: the TGI was over 100 µM.

For `CC1(C)CC(=O)C(C=NC(=O)c2ccncc2)=C(O)C1`, the TGI is over 100 µM.

`O=C(O/C=C\OC1CCCC1(c1ccccc1)c1ccccc1)c1ccccc1` (stereo not given) showed a TGI of 9.32 µM.

For a further assay, the system named is SNB-19 CNS. Briefly: NCI anticancer screen, dose series, 48 h.
Molecule `Cc1c(C)n(-c2ccccc2)c2nc(S(C)(=O)=O)nc(S(C)(=O)=O)c12` yielded a TGI of 25.6 µM.

Regarding `CC(=O)O[C@H]1CC[C@@]2(C)C(=CC[C@@H]3[C@@H]2CC[C@]2(C)NC(=O)/C(=C\c4ccccc4)C[C@@H]32)C1`, the TGI came out at 31.8 µM.

The molecule `O=C(CCc1cc(O)ccc1O)OCCc1ccccc1` showed a TGI of over 100 µM.

In the case of `O=C(N[C@@H](c1ccccc1)[C@@H](O)C(=O)OCc1ccc([N+](=O)[O-])cc1)c1ccccc1`, the TGI was over 100 µM.

In turn, `Cc1c(O)c(OC2OC(CO)C(O)C(O)C2O)cc2c1CC[C@@H]1C2(C)C(=O)C[C@]2(C)[C@@H]([C@@](C)(O)C(=O)CCC(C)(C)O)[C@H](O)C[C@@]12C` (stereo not given in full) gave a TGI of over 100 µM.

On to `O=c1oc2ccccc2cc1-c1cn2ccccc2n1`, for which the TGI was determined as 12.7 µM.

`Cn1c(=O)oc2cc(C(O)CN3CCN(Cc4ccccn4)CC3)c(Cl)cc21` (stereo not given) returned a TGI of over 100 µM.

On to `O=C(NCCCl)N(O)C(=O)Nc1ccccc1`, for which the TGI is over 100 µM.

With `COC(=O)[C@H](Cc1c[nH]c2ccccc12)NC(=O)c1ccc(CNC(=O)/C(C)=C/c2ccccc2)cc1`, the TGI was over 100 µM.

Molecule `C/C(=N/NC(=S)Nc1ccc(Cl)cc1)c1cccc(/C(C)=N\NC(=S)Nc2ccc(Cl)cc2)n1` yielded a TGI of over 100 µM.

Regarding `COC(=O)C1(C(=O)OC)C/C(C)=C(/C)SCCCS1`, the TGI was over 100 µM.

The molecule `CC1(C)CC(=O)C(C=NC(=O)c2ccncc2)=C(O)C1` registered a TGI of over 100 µM.

As for `O=C(O/C=C\OC1CCCC1(c1ccccc1)c1ccccc1)c1ccccc1` (stereo not given), the TGI came to 28.9 µM.

A further assay relates to NCI-H23 lung. Briefly: NCI anticancer screen, dose series, 48 h.
For `Cc1c(C)n(-c2ccccc2)c2nc(S(C)(=O)=O)nc(S(C)(=O)=O)c12`, the TGI is 23.3 µM.

`CC(=O)O[C@H]1CC[C@@]2(C)C(=CC[C@@H]3[C@@H]2CC[C@]2(C)NC(=O)/C(=C\c4ccccc4)C[C@@H]32)C1` registered a TGI of 33.1 µM.

On to `O=C(CCc1cc(O)ccc1O)OCCc1ccccc1`, for which the TGI is over 90.8 µM.

The molecule `O=C(N[C@@H](c1ccccc1)[C@@H](O)C(=O)OCc1ccc([N+](=O)[O-])cc1)c1ccccc1` showed a TGI of over 100 µM.

On to `Cc1c(O)c(OC2OC(CO)C(O)C(O)C2O)cc2c1CC[C@@H]1C2(C)C(=O)C[C@]2(C)[C@@H]([C@@](C)(O)C(=O)CCC(C)(C)O)[C@H](O)C[C@@]12C` (stereo not given in full), for which the TGI was over 100 µM.

Take `O=c1oc2ccccc2cc1-c1cn2ccccc2n1`: the TGI came to 29.6 µM.

Molecule `Cn1c(=O)oc2cc(C(O)CN3CCN(Cc4ccccn4)CC3)c(Cl)cc21` (stereo not given) had a TGI of over 100 µM.

As for `O=C(NCCCl)N(O)C(=O)Nc1ccccc1`, the TGI is over 100 µM.

With `COC(=O)[C@H](Cc1c[nH]c2ccccc12)NC(=O)c1ccc(CNC(=O)/C(C)=C/c2ccccc2)cc1`, the TGI was over 100 µM.

`C/C(=N/NC(=S)Nc1ccc(Cl)cc1)c1cccc(/C(C)=N\NC(=S)Nc2ccc(Cl)cc2)n1`: the TGI was over 100 µM.

As to `COC(=O)C1(C(=O)OC)C/C(C)=C(/C)SCCCS1`, the TGI is over 100 µM.

`CC1(C)CC(=O)C(C=NC(=O)c2ccncc2)=C(O)C1` gave a TGI of over 100 µM.

Molecule `O=C(O/C=C\OC1CCCC1(c1ccccc1)c1ccccc1)c1ccccc1` (stereo not given) registered a TGI of 6.07 µM.

A further assay relates to CCRF-CEM leukemia. Kind of assay: NCI anticancer screen, dose series, 48 h.
With `Cc1c(C)n(-c2ccccc2)c2nc(S(C)(=O)=O)nc(S(C)(=O)=O)c12`, the TGI came out at 2.29 µM.

The molecule `CC(=O)O[C@H]1CC[C@@]2(C)C(=CC[C@@H]3[C@@H]2CC[C@]2(C)NC(=O)/C(=C\c4ccccc4)C[C@@H]32)C1` returned a TGI of 55.4 µM.

`O=C(CCc1cc(O)ccc1O)OCCc1ccccc1` returned a TGI of 1.94 µM.

The molecule `O=C(N[C@@H](c1ccccc1)[C@@H](O)C(=O)OCc1ccc([N+](=O)[O-])cc1)c1ccccc1` returned a TGI of over 100 µM.

On to `Cc1c(O)c(OC2OC(CO)C(O)C(O)C2O)cc2c1CC[C@@H]1C2(C)C(=O)C[C@]2(C)[C@@H]([C@@](C)(O)C(=O)CCC(C)(C)O)[C@H](O)C[C@@]12C` (stereo not given in full), for which the TGI is over 100 µM.

`O=c1oc2ccccc2cc1-c1cn2ccccc2n1` displayed a TGI of over 22.5 µM.

In turn, `Cn1c(=O)oc2cc(C(O)CN3CCN(Cc4ccccn4)CC3)c(Cl)cc21` (stereo not given) displayed a TGI of over 100 µM.

Consider `O=C(NCCCl)N(O)C(=O)Nc1ccccc1`, for which the TGI was over 100 µM.

As for `COC(=O)[C@H](Cc1c[nH]c2ccccc12)NC(=O)c1ccc(CNC(=O)/C(C)=C/c2ccccc2)cc1`, the TGI was over 100 µM.

Molecule `C/C(=N/NC(=S)Nc1ccc(Cl)cc1)c1cccc(/C(C)=N\NC(=S)Nc2ccc(Cl)cc2)n1` returned a TGI of over 100 µM.

Turning to `COC(=O)C1(C(=O)OC)C/C(C)=C(/C)SCCCS1`, the TGI was over 100 µM.

In turn, `CC1(C)CC(=O)C(C=NC(=O)c2ccncc2)=C(O)C1` showed a TGI of over 100 µM.

In the case of `O=C(O/C=C\OC1CCCC1(c1ccccc1)c1ccccc1)c1ccccc1` (stereo not given), the TGI was determined as 5.89 µM.

The next assay concerns RXF 393 renal. Briefly: NCI anticancer screen, dose series, 48 h.
On to `Cc1c(C)n(-c2ccccc2)c2nc(S(C)(=O)=O)nc(S(C)(=O)=O)c12`, for which the TGI stood at 2.75 µM.

`CC(=O)O[C@H]1CC[C@@]2(C)C(=CC[C@@H]3[C@@H]2CC[C@]2(C)NC(=O)/C(=C\c4ccccc4)C[C@@H]32)C1` displayed a TGI of 27.8 µM.

In turn, `O=C(CCc1cc(O)ccc1O)OCCc1ccccc1` had a TGI of 25.9 µM.

`O=C(N[C@@H](c1ccccc1)[C@@H](O)C(=O)OCc1ccc([N+](=O)[O-])cc1)c1ccccc1`: the TGI is over 100 µM.

For `Cc1c(O)c(OC2OC(CO)C(O)C(O)C2O)cc2c1CC[C@@H]1C2(C)C(=O)C[C@]2(C)[C@@H]([C@@](C)(O)C(=O)CCC(C)(C)O)[C@H](O)C[C@@]12C` (stereo not given in full), the TGI is over 100 µM.

`O=c1oc2ccccc2cc1-c1cn2ccccc2n1` showed a TGI of 13.8 µM.

`Cn1c(=O)oc2cc(C(O)CN3CCN(Cc4ccccn4)CC3)c(Cl)cc21` (stereo not given) gave a TGI of over 100 µM.

`O=C(NCCCl)N(O)C(=O)Nc1ccccc1` registered a TGI of over 100 µM.

As for `COC(=O)[C@H](Cc1c[nH]c2ccccc12)NC(=O)c1ccc(CNC(=O)/C(C)=C/c2ccccc2)cc1`, the TGI was 7.78 µM.

As for `C/C(=N/NC(=S)Nc1ccc(Cl)cc1)c1cccc(/C(C)=N\NC(=S)Nc2ccc(Cl)cc2)n1`, the TGI came to 27.1 µM.

`COC(=O)C1(C(=O)OC)C/C(C)=C(/C)SCCCS1` displayed a TGI of over 100 µM.

`CC1(C)CC(=O)C(C=NC(=O)c2ccncc2)=C(O)C1` showed a TGI of over 100 µM.

As to `O=C(O/C=C\OC1CCCC1(c1ccccc1)c1ccccc1)c1ccccc1` (stereo not given), the TGI worked out at 15 µM.
